Reference: patent US20130102618A1, “3-AMINO-5,6-DIHYDRO-1H-PYRAZIN-2-ONE DERIVATIVES USEFUL FOR THE TREATMENT OF ALZHEIMER'S DISEASE AND OTHER FORMS OF DEMENTIA” (JANSSEN PHARMACEUTICA NV, priority 2010, published 2013)

Key:
[1] = molecular target: T1, recombinant BACE1 protein (Homo sapiens, UniProt P56817); experiment: Biochemical FRET based assay; conditions: recombinant BACE1 1 μg/ml, APP-derived Swedish-mutation peptide substrate, 120 minutes, room temperature, pH 5.0; read-out: Biochemical FRET based assay pIC50 (converted)
T1 construct: recombinant BACE1 protein in a final concentration of 1 μg/ml
From the text: This assay is a Fluorescence Resonance Energy Transfer Assay (FRET) based assay. The substrate for this assay is an APP derived 13 amino acids peptide that contains the ‘Swedish’ Lys-Met/Asn-Leu mutation of the amyloid precursor protein (APP) β-secretase cleavage site. This substrate also contains two fluorophores: (7-methoxy-coumarin-4-yl)acetic acid (Mca) is a fluorescent donor with excitation wavelength at 320 nm and emission at 405 nm and 2,4-Dinitrophenyl (Dnp) is a proprietary quencher acceptor. […] Upon cleavage by BACE1, the fluorophore Mca is separated from the quenching group Dnp, restoring the full fluorescence yield of the donor. The increase in fluorescence is linearly related to the rate of proteolysis (Koike H et al. J Biochem. 1999, 126, 235-42).
Briefly in a 384-well format recombinant BACE1 protein in a final concentration of 1 μg/ml is incubated for 120 minutes at room temperature with 10 μm substrate in incubation buffer (40 mM Citrate buffer pH 5.0, 0.04% PEG, 4% DMSO) in the absence or presence of compound. Next the amount of proteolysis is directly measured by fluorescence measurement at T=0 and T=120 (excitation at 320 nm and emission at 405 nm). Results are expressed in RFU, as difference between T120 and T0.
A best-fit curve is fitted by a minimum sum of squares method to the plot of % Controlmin versus compound concentration. From this an […] value (inhibitory concentration causing 50% inhibition of activity) can be obtained.

[2] = test system: Aβtotal produced and secreted into the medium of human neuroblastoma SKNBE2 cells; experiment: Cellular αlisa assay in SKNBE2 cells, Aβtotal; type: cell-based; conditions: SKNBE2 expressing wild type hAPP695, incubated for 18 hours, read-out: Cellular αlisa assay in SKNBE2 cells Aβtotal pIC50 (converted)
Experimental: (§1) In two αlisa assays the levels of Aβtotal and Aβ42 produced and secreted into the medium of human neuroblastoma SKNBE2 cells are quantified. The assay is based on the human neuroblastoma SKNBE2 expressing the wild type Amyloid Precursor Protein (hAPP695). The compounds are diluted and added to these cells, incubated for 18 hours and then measurements of Aβ42 and Aβtotal are taken. Aβtotal and Aβ42 are measured by sandwich αlisa. αlisa is a sandwich assay using biotinylated antibody AbN/25 attached to streptavidin coated beads and antibody Ab4G8 or cAb42/26 conjugated acceptor beads for the detection of Aβtotal and Aβ42 respectively. In the presence of Aβtotal or Aβ42, the beads come into close proximity. The excitation of the Donor beads provokes the release of singlet oxygen molecules that triggers a cascade of energy transfer in the Acceptor beads, resulting in light emission. Light emission is measured after 1 hour incubation (excitation at […] and emission at 615 nm).
(§2) A best-fit curve is fitted by a minimum sum of squares method to the plot of % Controlmin versus compound concentration. From this an IC50 value (inhibitory concentration causing 50% inhibition of activity) can be obtained.

[3] = test system: Aβ42 produced and secreted into the medium of human neuroblastoma SKNBE2 cells; experiment: Cellular αlisa assay in SKNBE2 cells, Aβ42; type: cell-based; conditions: SKNBE2 expressing wild type hAPP695, incubated for 18 hours, read-out: Cellular αlisa assay in SKNBE2 cells Aβ42 pIC50 (converted)
Experimental: as §1, §2

T1 sequence (P56817 46-501): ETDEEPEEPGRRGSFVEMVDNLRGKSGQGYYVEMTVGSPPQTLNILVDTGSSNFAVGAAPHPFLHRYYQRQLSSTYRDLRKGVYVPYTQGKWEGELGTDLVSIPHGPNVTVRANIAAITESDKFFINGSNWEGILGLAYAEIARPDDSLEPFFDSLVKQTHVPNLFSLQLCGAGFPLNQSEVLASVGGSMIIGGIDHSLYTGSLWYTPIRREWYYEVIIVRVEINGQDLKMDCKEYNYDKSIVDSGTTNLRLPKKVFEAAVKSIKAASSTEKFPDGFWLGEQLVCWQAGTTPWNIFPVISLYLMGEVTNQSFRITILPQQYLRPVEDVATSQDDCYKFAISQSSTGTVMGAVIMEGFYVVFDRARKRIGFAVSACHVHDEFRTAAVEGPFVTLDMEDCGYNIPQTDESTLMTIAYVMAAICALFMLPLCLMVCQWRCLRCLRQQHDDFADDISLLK

SMILES	melting point [°C]	IC50 [1] [µM]	IC50 [2] [µM]	IC50 [3] [µM]
CN1CC(C)(c2cccc(-c3cccc(C#N)c3)c2)N=C(N)C1=O (stereo not drawn) [compound 1]	218.6	27.5	5.75	7.08
COc1cncc(-c2cccc(C3(C)CN(C)C(=O)C(N)=N3)c2)c1 (stereo not drawn) [compound 2]	230.4	15.5	5.75	7.94
CN1CC(C)(c2cccc(NC(=O)c3ccc(Cl)cn3)c2)N=C(N)C1=O (stereo not drawn) [compound 3]	–	0.457	0.107	0.115
CN1CC(C)(c2cc(-c3ccccc3)c(F)cc2F)N=C(N)C1=O (stereo not drawn) [compound 6]	141.5	> 30.2	> 10	> 10

Results, then the compound that gave them:

melting point [°C]	IC50 [1] [µM]	IC50 [2] [µM]	IC50 [3] [µM]	SMILES
180.5	7.59	4.07	4.47	COc1cncc(-c2cc(C3(C)CN(C)C(=O)C(N)=N3)c(F)cc2F)c1 (stereo not drawn) [compound 7]
145.2	> 30.2	> 10	> 10	CN1CC(C)(c2cc(-c3cncnc3)c(F)cc2F)N=C(N)C1=O (stereo not drawn) [compound 10]
234.6	> 30.2	> 10	> 10	CN1CC(C)(c2cccc(-c3cncnc3)c2)N=C(N)C1=O (stereo not drawn) [compound 16]
